PMC10772524 (Haematologica, 2023)

Experiments:
[1] = test system: patients; settings: cited from earlier work
[2] = test system: patients with relapsed/refractory T-cell lymphoma; assay: Safety and tolerability of tenalisib plus romidepsin; assay type: in vivo, human; settings: for Patients with three or more drug interruptions: during the combination treatment; for Patients with drug interruptions / Patients with dose reductions: overall, during combination treatment; for Patients with drug interruptions: PTCL and CTCL groups
[3] = test system: peripheral T-cell lymphoma (PTCL); settings: PTCL patients; cited from earlier work
[4] = test system: CYP3A4; settings: also substrates for CYP3A4; ref not given; cited from earlier work
[5] = Plasma pharmacokinetics of tenalisib, IN0385 and romidepsin; assay type: in vivo, human; settings: oral, all three cohorts

| Structure (SMILES) | Discontinuation rates due to adverse events, single agent studies [1] | Patients with three or more drug interruptions [2] | MTD/RP2D dose (recommended dose for dose expansion) in the combination ([2]; intravenous, days 1, 8, 15 of 28-day cycle, with tenalisib) | Patients with drug interruptions [2] | Patients with dose reductions [2] | CR rate with monotherapy [3] | MTD/RP2D dose (recommended dose for dose expansion) in the combination ([2]; orally twice daily (BID), with romidepsin) | CYP3A4 inhibition [4] | Absorption [5] |
| --- | --- | --- | --- | --- | --- | --- | --- | --- | --- |
| C/C=C1\NC(=O)[C@H]2CSSCC/C=C/[C@H](CC(=O)N[C@H](C(C)C)C(=O)N2)OC(=O)[C@H](C(C)C)NC1=O [romidepsin, reference compound] | 19-28% | 24.2% | 14 mg/m^2 | 63.6% | 33.3% | 14% | – | – | – |
| CC[C@H](Nc1ncnc2[nH]cnc12)c1oc2ccccc2c(=O)c1-c1cccc(F)c1 [tenalisib] | – | 12.1% | – | 60.6% | 27.3% | 20.0% | 800 mg | moderate inhibitors | rapidly absorbed |
